From patent US20110178396A1, “Nicotinamide Derivatives” (CRC FOR BIOMEDICAL IMAGING DEVELOPMENT LTD., priority 2008, published 2011)

Columns and labels:
[1] = test system: melanoma tumour; conditions: melanoma tumour bearing mice, cited from earlier work
[2] = test system: B16F0 melanoma tumour; assay: Biodistribution in B16 melanoma bearing mice; format: in vivo, C57BL/6J mice; conditions: for Organ distribution Intestine / Organ distribution Liver / Organ distribution Spleen / Organ distribution Stomach / Organ distribution Thyroid / Organ distribution Tumour: B16F0 tumour, mean ± S.D.
Description: Animal experiments were performed in compliance with the NHMRC Australian Code of Practice for the care and use of animals for scientific purposes. Female C57BL/6J black and BALB/c nude albino mice of 5 weeks age were obtained from the Animal Resources Centre, Western Australia. B16F0 murine melanoma cells were originally obtained from European Collection of Cell Cultures (UK) and A375 human amelanotic melanoma cells were originally obtained from American Type Culture Collection (USA). Before transplantation, B16F0 and A375 melanoma cells were maintained as a monolayer in RPMI culture medium supplemented with 10% foetal calf serum and antibiotics and passaged with trypsinisation. Early passages were frozen and stored in liquid nitrogen. Cells were passaged to P=10 and then discarded. Frozen aliquots were grown in a monolayer culture to between 80-95% confluence and for transplantation were trypsinised and washed with Ca^2+ and Mg^2+ free phosphate buffered saline (PBS). For inoculation, B16F0 melanoma cells were resuspended in Ca^2+ and Mg^2+ free PBS at 3 or 5×10^6 viable cells per ml and 0.1 ml was subcutaneously injected at the left flank of 6-7 weeks old C57BL/6J mice. Eleven days later, tumours could be palpated in >98% of inoculated animals. A375 human melanoma cells were resuspended at 1×10^7 viablecells per ml and 0.1 ml was injected subcutaneously at the left flank of 6 weeks old BALB/c nude mice and 25-26 days later tumours could be palpated with ˜60% of inoculated animals developing tumours.
Eleven days (B16F0 melanoma) and 25 days (A375 human melanoma) after tumour transplantation, the [^18F]nicotinamides (0.5-1.5 MBq, 100 μl) and [^123I]nicotinamide (0.37-0.74 MBq, 100 μl) derivatives were injected intravenously via the tail vein into mice (15-18 g). Time points of 1, 3, 6, 24, 48, 72 h after injection were chosen for determining the distribution of each compound in various organs and tissues for the iodine-123 labelled compounds and between 15 min and 6 hours (e.g. 15 min, 30 min, 1 h, 2 h, 4 h or 6 h) were chosen for the ^18F-labelled compounds. At defined times post injection, groups of mice (n=5) were weighed, sacrificed by CO2 administration followed by cervical dislocation and dissected. Selected organs were weighed and their radioactivity measured with a γ-counter. The remaining activity in the carcass was also determined in order to obtain the total activity in the mouse at defined time points. The fraction of injected activity (% ID) in the organ was calculated by comparison with suitable dilutions of the injected dose. Then, the radioactivity concentration in the organ (% ID/g) was found by dividing the % ID for each organ by the weight of the organ.

[3] = B16 melanoma bearing mice, 15 min
[4] = B16 tumour, C57BL/6J mice, 1 h, mean ± SD, n = 5
[5] = B16 tumour, C57BL/6J mice, 6 h, mean ± SD, n = 5
[6] = B16 tumour, C57BL/6J mice, 24 h, mean ± SD, n = 5

CCN(CC)CCNC(=O)c1ccc([18F])cc1 [structure A]
reported tumour uptake ([1]; at 2 h): 6.5 % ID/g | Typical Tumour: Blood ratio [1]: 12

CCCCN(C)CCCCNC(=O)c1ccc(F)nc1 [[^18F]MEL4, 6-Fluoro-N-[4-(butyl(methyl)amino)butyl]nicotinamide]
uptake BLOOD [2, 3]: 0.68 % ID/g | uptake BONE [2, 3]: 3.89 % ID/g | uptake BRAIN [2, 3]: 0.84 % ID/g | uptake EYES [2, 3]: 11.27 % ID/g | uptake GIT [2, 3]: 8.23 % ID/g | uptake HEART [2, 3]: 2.49 % ID/g | uptake KIDNEY [2, 3]: 15.88 % ID/g | uptake LIVER [2, 3]: 30.69 % ID/g | uptake LUNGS [2, 3]: 12.06 % ID/g | uptake MUSCLE [2, 3]: 2.83 % ID/g | uptake SKIN [2, 3]: 2.53 % ID/g | uptake SPLEEN [2, 3]: 11.19 % ID/g | uptake STOMACH [2, 3]: 8.52 % ID/g | uptake THYROID [2, 3]: 10.16 % ID/g | uptake TUMOUR [2, 3]: 4.01 % ID/g | uptake BLOOD ([2]; B16 melanoma bearing mice, 1 h): 0.32 % ID/g | uptake BONE ([2]; B16 melanoma bearing mice, 1 h): 2.03 % ID/g | uptake BRAIN ([2]; B16 melanoma bearing mice, 1 h): 0.75 % ID/g | uptake EYES ([2]; B16 melanoma bearing mice, 1 h): 12.65 % ID/g | uptake GIT ([2]; B16 melanoma bearing mice, 1 h): 5.78 % ID/g | uptake HEART ([2]; B16 melanoma bearing mice, 1 h): 0.98 % ID/g | uptake KIDNEY ([2]; B16 melanoma bearing mice, 1 h): 4.64 % ID/g | uptake LIVER ([2]; B16 melanoma bearing mice, 1 h): 36.76 % ID/g | uptake LUNGS ([2]; B16 melanoma bearing mice, 1 h): 4.49 % ID/g | uptake MUSCLE ([2]; B16 melanoma bearing mice, 1 h): 1.00 % ID/g | uptake SKIN ([2]; B16 melanoma bearing mice, 1 h): 1.61 % ID/g | uptake SPLEEN ([2]; B16 melanoma bearing mice, 1 h): 7.38 % ID/g | uptake STOMACH ([2]; B16 melanoma bearing mice, 1 h): 3.31 % ID/g | uptake THYROID ([2]; B16 melanoma bearing mice, 1 h): 5.37 % ID/g | uptake TUMOUR ([2]; B16 melanoma bearing mice, 1 h): 4.79 % ID/g | uptake BLOOD ([2]; B16 melanoma bearing mice, 3 h): 0.21 % ID/g | uptake BONE ([2]; B16 melanoma bearing mice, 3 h): 1.41 % ID/g | uptake BRAIN ([2]; B16 melanoma bearing mice, 3 h): 0.57 % ID/g | uptake EYES ([2]; B16 melanoma bearing mice, 3 h): 14.28 % ID/g | uptake GIT ([2]; B16 melanoma bearing mice, 3 h): 4.18 % ID/g | uptake HEART ([2]; B16 melanoma bearing mice, 3 h): 0.71 % ID/g | uptake KIDNEY ([2]; B16 melanoma bearing mice, 3 h): 2.89 % ID/g | uptake LIVER ([2]; B16 melanoma bearing mice, 3 h): 32.81 % ID/g | uptake LUNGS ([2]; B16 melanoma bearing mice, 3 h): 3.08 % ID/g | uptake MUSCLE ([2]; B16 melanoma bearing mice, 3 h): 0.53 % ID/g | uptake SKIN ([2]; B16 melanoma bearing mice, 3 h): 1.09 % ID/g | uptake SPLEEN ([2]; B16 melanoma bearing mice, 3 h): 5.31 % ID/g | uptake STOMACH ([2]; B16 melanoma bearing mice, 3 h): 2.36 % ID/g | uptake THYROID ([2]; B16 melanoma bearing mice, 3 h): 2.92 % ID/g | uptake TUMOUR ([2]; B16 melanoma bearing mice, 3 h): 5.31 % ID/g | uptake BLOOD ([2]; B16 melanoma bearing mice, 6 h): 0.14 % ID/g | uptake BONE ([2]; B16 melanoma bearing mice, 6 h): 1.03 % ID/g | uptake BRAIN ([2]; B16 melanoma bearing mice, 6 h): 0.37 % ID/g | uptake EYES ([2]; B16 melanoma bearing mice, 6 h): 15.75 % ID/g | uptake GIT ([2]; B16 melanoma bearing mice, 6 h): 3.08 % ID/g | uptake HEART ([2]; B16 melanoma bearing mice, 6 h): 0.52 % ID/g | uptake KIDNEY ([2]; B16 melanoma bearing mice, 6 h): 1.80 % ID/g | uptake LIVER ([2]; B16 melanoma bearing mice, 6 h): 26.41 % ID/g | uptake LUNGS ([2]; B16 melanoma bearing mice, 6 h): 2.23 % ID/g | uptake MUSCLE ([2]; B16 melanoma bearing mice, 6 h): 0.36 % ID/g | uptake SKIN ([2]; B16 melanoma bearing mice, 6 h): 0.89 % ID/g | uptake SPLEEN ([2]; B16 melanoma bearing mice, 6 h): 4.11 % ID/g | uptake STOMACH ([2]; B16 melanoma bearing mice, 6 h): 1.79 % ID/g | uptake THYROID ([2]; B16 melanoma bearing mice, 6 h): 1.98 % ID/g | uptake TUMOUR ([2]; B16 melanoma bearing mice, 6 h): 5.29 % ID/g

CCN(CC)CCNC(=O)c1ccc(I)nc1 [[^123I]14, N-(2-(Diethylamino)ethyl)-6-iodonicotinamide]
Organ distribution Intestine ([2]; C57BL/6J mice, 1 h, n = 5): 10 ± 1 % ID/organ | Organ distribution Liver ([2]; C57BL/6J mice, 1 h, n = 5): 2.7 ± 0.7 % ID/organ | Organ distribution Spleen ([2]; C57BL/6J mice, 1 h, n = 5): 0.31 ± 0.07 % ID/organ | Organ distribution Stomach ([2]; C57BL/6J mice, 1 h, n = 5): 9 ± 1 % ID/organ | Organ distribution Thyroid ([2]; C57BL/6J mice, 1 h, n = 5): 1.2 ± 0.7 % ID/organ | Organ distribution Tumour ([2]; C57BL/6J mice, 1 h, n = 5): 1.8 ± 0.4 % ID/organ | Organ distribution Intestine ([2]; C57BL/6J mice, 6 h, n = 5): 5 ± 1 % ID/organ | Organ distribution Liver ([2]; C57BL/6J mice, 6 h, n = 5): 1.3 ± 0.4 % ID/organ | Organ distribution Spleen ([2]; C57BL/6J mice, 6 h, n = 5): 0.17 ± 0.05 % ID/organ | Organ distribution Stomach ([2]; C57BL/6J mice, 6 h, n = 5): 7 ± 2 % ID/organ | Organ distribution Thyroid ([2]; C57BL/6J mice, 6 h, n = 5): 3.3 ± 0.8 % ID/organ | Organ distribution Tumour ([2]; C57BL/6J mice, 6 h, n = 5): 1.4 ± 0.8 % ID/organ | Organ distribution Intestine ([2]; C57BL/6J mice, 24 h, n = 5): 0.35 ± 0.03 % ID/organ | Organ distribution Liver ([2]; C57BL/6J mice, 24 h, n = 5): 0.19 ± 0.04 % ID/organ | Organ distribution Spleen ([2]; C57BL/6J mice, 24 h, n = 5): 0.01 ± 0.00 % ID/organ | Organ distribution Stomach ([2]; C57BL/6J mice, 24 h, n = 5): 0.4 ± 0.1 % ID/organ | Organ distribution Thyroid ([2]; C57BL/6J mice, 24 h, n = 5): 6.5 ± 2.8 % ID/organ | Organ distribution Tumour ([2]; C57BL/6J mice, 24 h, n = 5): 0.11 ± 0.06 % ID/organ | tumour standardized uptake value (SUVt) ([2]; B16 tumour, C57BL/6J mice, 1 h): 1.2 ± 0.1 | Uptake Lung [2, 4]: 4.8 ± 0.4 % ID/g | uptake BLOOD [2, 4]: 6.9 ± 0.6 % ID/g | uptake BRAIN [2, 4]: 0.36 ± 0.05 % ID/g | uptake HEART [2, 4]: 2.3 ± 0.2 % ID/g | uptake KIDNEY [2, 4]: 4.2 ± 0.6 % ID/g | uptake LIVER [2, 4]: 3.1 ± 0.6 % ID/g | uptake TUMOUR [2, 4]: 3.8 ± 0.2 % ID/g | tumour standardized uptake value (SUVt) ([2]; B16 tumour, C57BL/6J mice, 6 h): 1.0 ± 0.1 | Uptake Lung [2, 5]: 2.6 ± 0.8 % ID/g | uptake BLOOD [2, 5]: 3.6 ± 1.0 % ID/g | uptake BRAIN [2, 5]: 0.14 ± 0.04 % ID/g | uptake HEART [2, 5]: 1.1 ± 0.3 % ID/g | uptake KIDNEY [2, 5]: 2.4 ± 0.7 % ID/g | uptake LIVER [2, 5]: 1.4 ± 0.5 % ID/g | uptake TUMOUR [2, 5]: 2.3 ± 0.5 % ID/g | tumour standardized uptake value (SUVt) ([2]; B16 tumour, C57BL/6J mice, 24 h): 0.5 ± 0.2 | Uptake Lung [2, 6]: 0.2 ± 0.1 % ID/g | uptake BLOOD [2, 6]: 0.25 ± 0.12 % ID/g | uptake BRAIN [2, 6]: 0.02 % ID/g | uptake HEART [2, 6]: 0.10 ± 0.05 % ID/g | uptake KIDNEY [2, 6]: 0.18 ± 0.05 % ID/g | uptake LIVER [2, 6]: 0.20 ± 0.04 % ID/g | uptake TUMOUR [2, 6]: 0.26 ± 0.14 % ID/g
